Experimental data from paper PMC8143339, “PK/PD Modeling of the PDE7 Inhibitor—GRMS-55 in a Mouse Model of Autoimmune Hepatitis” (Pharmaceutics, 2021).

Columns and labels:
ConA-induced hepatitis = assay: Preliminary pharmacological evaluation in ConA-induced hepatitis; format: in vivo, BALB/c mice
Procedure: ConA was dissolved in sterile saline (2 mg·mL^−1). The studied compounds (GRMS-55, rolipram, and BRL-50481) were dissolved in a mixture of DMSO, PEG 400, and water for injection at a ratio of 25:25:50 (v/v/v). Mice were given an IP injection of the investigated compounds or the corresponding volume of vehicle alone and, thirty minutes later, intravenously (IV) administered with ConA solution. An additional control group received vehicle alone IP instead of the studied compounds followed by IV injection of sterile saline. ConA was given at a dose of 20 mg·kg^−1. Mice were exsanguinated at several time points post-ConA injection. Blood samples were allowed to clot for 0.5 h at room temperature and then centrifuged at 3000× g for 10 min to obtain the serum, which was stored at −20 °C until further analysis.
The influence of PDE inhibitors on the levels of inflammatory mediators and transaminases in ConA-treated mice was investigated in two separate experiments. In the preliminary study, the animals were pretreated IP with GRMS-55 at a dose of 50 mg·kg^−1, the PDE4-selective inhibitor rolipram at a dose of 10 mg·kg^−1, or the PDE7-selective inhibitor BRL-50481 at a dose of 50 mg·kg^−1. Doses of the investigated compounds were chosen based on the results of previous studies. Subsequently, mice were given an IV injection of ConA and sacrificed at 8 h following mitogen dosing. The levels of TNF-α, IL-6, and IFN-γ and the activities of ALT and AST in the mouse serum were measured. This preliminary experiment allowed comparing the activity of the studied PDE inhibitors in this AIH model and helped to select the doses of GRMS-55 for a subsequent pharmacodynamic study. In the final pharmacodynamic experiment, GRMS-55 was administered at two dose levels (50 and 100 mg·kg^−1) followed by ConA administration at a dose of 20 mg·kg^−1. Animals were sacrificed at various time points post-ConA dosing (1, 2, 4, 8 and 24 h). The levels of TNF-α, IL-1β, IL-4, IL-6, IL-10, IL-12, IL-17A, and IFN-γ were measured using a multiplex Luminex assay. In addition, the activities of ALT and AST in the mouse serum were assessed. The concentration–time profiles of the selected biomarkers obtained in this experiment combined with the results of pharmacokinetic analysis allowed the development of a semi-mechanistic PK/PD/disease progression model and the investigation of concentration–effect relationships of GRMS-55.
The serum samples from the preliminary pharmacological study were analyzed using ELISA tests according to the protocols provided by the manufacturers. The TNF-α concentrations were measured using the Mouse TNF-α Quantikine ELISA Kit (R&D Systems, Minneapolis, MN, USA), while the concentrations of IL-6 and IFN-gamma were quantified by ELISA kits manufactured by Cloud-Clone Corp. (Houston, TX, USA). The absorbance of samples was measured on a POLARstar Omega multi-mode microplate reader (BMG LABTECH, Ortenberg, Germany) set at 450 nm wavelength. TNF-α, IL-1β, IL-6, IL-4, IL-10, IL-12, IL-17A, and IFN-γ serum levels in samples from pharmacodynamic experiment were determined by a premixed Magnetic Luminex Assay (R&D Systems, Inc., Minneapolis, MN, USA) according to the manufacturer’s protocol. Serum AST and ALT activities were quantified on a chemistry analyzer BS-800 (Shenzhen Mindray Bio-medical Electronics Co., Ltd., Shenzhen, China).

PDE4B = conditions: in vitro assay; read-out: IC50 PDE4B; cited from earlier work
PDE7A = conditions: in vitro assay; read-out: IC50 PDE7A; cited from earlier work
[1] = test system: paw edema in collagen-induced arthritis; set-up: method as in PMID 31899535; conditions: rats with collagen-induced arthritis, PK/PD arthritis progression model; cited from earlier work
TNF-α production = test system: TNF-α production; set-up: method as in PMID 31899535; conditions: rat lipopolysaccharide-induced endotoxemia, PK/PD model; cited from earlier work
[2] = 8 h after ConA 20 mg/kg IV, IP pretreatment: rolipram 10, BRL-50481 50, GRMS-55 50 mg/kg, vs vehicle control

| Compound | effect on activities of transaminases (ConA-induced hepatitis; 50 mg/kg IP, 8 h after ConA) | effect on serum IFN-γ concentration (ConA-induced hepatitis; [2]) | effect on serum IL-6 concentration (ConA-induced hepatitis; [2]) | effect on serum TNF-α concentration (ConA-induced hepatitis; [2]) | IC50 (PDE4B) [µM] | IC50 (PDE7A) [µM] | decrease of IFN-γ level compared to control group (ConA-induced hepatitis; 10 mg/kg IP, 8 h after ConA) | decrease of IL-6 level compared to control group (ConA-induced hepatitis; 10 mg/kg IP, 8 h after ConA) [times] | reduction of ALT activity compared to vehicle-treated control group (ConA-induced hepatitis; 10 mg/kg IP, 8 h after ConA) | reduction of AST activity compared to vehicle-treated control group (ConA-induced hepatitis; 10 mg/kg IP, 8 h after ConA) [times] | IC50, decrease of paw edema [1] [µg/mL] | IC50, suppression of TNF-α production (TNF-α production) [µg/mL] |
| --- | --- | --- | --- | --- | --- | --- | --- | --- | --- | --- | --- | --- |
| Cc1ccc([N+](=O)[O-])cc1S(=O)(=O)N(C)C [BRL-50481] | reduced | decreased | no effect | decreased | > 200 | 2.1 |  |  |  |  |  |  |
| COc1ccc(C2CNC(=O)C2)cc1OC1CCCC1 (stereo not shown) [Rolipram] |  |  |  |  |  | > 200 | approximately 5.0 times | ~3.8 | approximately 18.2 times | ~6.1 | 0.01 | 0.36 |
